Experimental data taken from US6914045B2, “Glycopeptide antibiotics” (Wyeth Holdings Corporation, priority 2001, dated 2005).
In brackets after ≈: the same amount, converted by molar mass.

Assays:
Assay in all cases: in vitro antibacterial evaluation, MIC by broth dilution
Format in all cases: cell-based
Streptococcus sp. = details: broth dilution, 18 hours at 35° C.
Method in brief: (§1)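 Following National Committee for Clinical Laboratory Standards recommendations (M7-A2), susceptibility was measured by dilution in Muller-Hinton II […]. Bacteria were seeded at 5×10^5 CFU/mL against compound concentrations from 64 down to 0.06 μg/mL.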

Enterococcus sp. = details: broth dilution, 18 hours at 35° C.
Method in brief: as §1

Escherichia coli = details: 18 hours at 35° C.
Method in brief: as §1

Staphylococcus sp. = details: broth dilution, 18 hours at 35° C.
Method in brief: as §1

Compound: COC1CCC2(C)C(CCC3C2CCC2(C)C(C(C)CCC4OCC5OC(OC6C(CO)OC(Oc7ccc(CC8NC(=O)C(C(C)c9ccccc9)NC(=O)CNC(=O)C(CO)NC(=O)C(C(O)C9CNC(=N)N9C9OC(CO)C(O)C(O)C9O)NC(=O)C(C(O)C9CNC(=N)N9)NC8=O)cc7)C(O)C6O)C(O)C(O)C5O4)CCC32)C1 (stereo not shown) [Example 130]
- MIC Streptococcus agalactiae (GC 4564) (Streptococcus sp.; Streptococcus agalactiae (GC 4564)): 8 µg/mL (≈ 4.84 µM)
- MIC Streptococcus pneumoniae (ATCC 6301) (Streptococcus sp.; Streptococcus pneumoniae (ATCC 6301)): 8 µg/mL (≈ 4.84 µM)
- MIC Streptococcus pneumoniae (GC 1894) (Streptococcus sp.; Streptococcus pneumoniae (GC 1894)): 1 µg/mL (≈ 0.605 µM)
- MIC Streptococcus pneumoniae (GC 4565) (Streptococcus sp.; Streptococcus pneumoniae (GC 4565)): 4 µg/mL (≈ 2.42 µM)
- MIC Streptococcus pyogenes (GC 4563) (Streptococcus sp.; Streptococcus pyogenes (GC 4563)): 16 µg/mL (≈ 9.69 µM)
- MIC Streptococcus pneumoniae (ATCC 6301) (Streptococcus sp.; strain ATCC 6301): 8 µg/mL (≈ 4.84 µM)
- MIC Streptococcus pneumoniae (GC 1894) (Streptococcus sp.; strain GC 1894): 1 µg/mL (≈ 0.605 µM)
- MIC Streptococcus pyogenes (GC 4563) (Streptococcus sp.; strain GC 4563): 16 µg/mL (≈ 9.69 µM)
- MIC Streptococcus agalactiae (GC 4564) (Streptococcus sp.; strain GC 4564): 8 µg/mL (≈ 4.84 µM)
- MIC Streptococcus pneumoniae (GC 4565) (Streptococcus sp.; strain GC 4565): 4 µg/mL (≈ 2.42 µM)
- MIC Enterococcus avium (GC 4558) (Enterococcus sp.; Enterococcus avium (GC 4558)): 16 µg/mL (≈ 9.69 µM)
- MIC Enterococcus faecalis (ATCC 29212) (Enterococcus sp.; Enterococcus faecalis (ATCC 29212)): 32 µg/mL (≈ 19.4 µM)
- MIC Enterococcus faecalis (GC 2242) (Enterococcus sp.; Enterococcus faecalis (GC 2242)): 32 µg/mL (≈ 19.4 µM)
- MIC Enterococcus faecalis (GC 2691) (Enterococcus sp.; Enterococcus faecalis (GC 2691)): 32 µg/mL (≈ 19.4 µM)
- MIC Enterococcus faecalis (GC 3059) (Enterococcus sp.; Enterococcus faecalis (GC 3059)): 64 µg/mL (≈ 38.7 µM)
- MIC Enterococcus faecalis (GC 4552) (Enterococcus sp.; Enterococcus faecalis (GC 4552)): 32 µg/mL (≈ 19.4 µM)
- MIC Enterococcus faecalis (GC 4553) (Enterococcus sp.; Enterococcus faecalis (GC 4553)): 8 µg/mL (≈ 4.84 µM)
- MIC Enterococcus faecalis (GC 4554) (Enterococcus sp.; Enterococcus faecalis (GC 4554)): 32 µg/mL (≈ 19.4 µM)
- MIC Enterococcus faecalis (GC 6189) (Enterococcus sp.; Enterococcus faecalis (GC 6189)): 32 µg/mL (≈ 19.4 µM)
- MIC Enterococcus faecium (GC 2243) (Enterococcus sp.; Enterococcus faecium (GC 2243)): 8 µg/mL (≈ 4.84 µM)
- MIC Enterococcus faecium (GC 4556) (Enterococcus sp.; Enterococcus faecium (GC 4556)): 64 µg/mL (≈ 38.7 µM)
- MIC Enterococcus faecium (GC 4557) (Enterococcus sp.; Enterococcus faecium (GC 4557)): 32 µg/mL (≈ 19.4 µM)
- MIC Enterococcus faecalis (ATCC 29212) (Enterococcus sp.; strain ATCC 29212): 32 µg/mL (≈ 19.4 µM)
- MIC Enterococcus faecalis (GC 2242) (Enterococcus sp.; strain GC 2242): 32 µg/mL (≈ 19.4 µM)
- MIC Enterococcus faecium (GC 2243) (Enterococcus sp.; strain GC 2243): 8 µg/mL (≈ 4.84 µM)
- MIC Enterococcus faecalis (GC 2691) (Enterococcus sp.; strain GC 2691): 32 µg/mL (≈ 19.4 µM)
- MIC Enterococcus faecalis (GC 3059) (Enterococcus sp.; strain GC 3059): 64 µg/mL (≈ 38.7 µM)
- MIC Enterococcus faecalis (GC 4552) (Enterococcus sp.; strain GC 4552): 32 µg/mL (≈ 19.4 µM)
- MIC Enterococcus faecalis (GC 4553) (Enterococcus sp.; strain GC 4553): 8 µg/mL (≈ 4.84 µM)
- MIC Enterococcus faecalis (GC 4554) (Enterococcus sp.; strain GC 4554): 32 µg/mL (≈ 19.4 µM)
- MIC Enterococcus faecium (GC 4556) (Enterococcus sp.; strain GC 4556): 64 µg/mL (≈ 38.7 µM)
- MIC Enterococcus faecium (GC 4557) (Enterococcus sp.; strain GC 4557): 32 µg/mL (≈ 19.4 µM)
- MIC Enterococcus avium (GC 4558) (Enterococcus sp.; strain GC 4558): 16 µg/mL (≈ 9.69 µM)
- MIC Enterococcus faecalis (GC 6189) (Enterococcus sp.; strain GC 6189): 32 µg/mL (≈ 19.4 µM)
- MIC Escherichia coli (ATCC 25922) (Escherichia coli; strain ATCC 25922): >64 µg/mL
- MIC Escherichia coli (GC 4559) (Escherichia coli; strain GC 4559): >64 µg/mL
- MIC Escherichia coli (GC 4560) (Escherichia coli; strain GC 4560): 64 µg/mL (≈ 38.7 µM)
- MIC Staphylococcus aureus (ATCC 29213) (Staphylococcus sp.): 32 µg/mL (≈ 19.4 µM)
- MIC Staphylococcus aureus (GC 1131) (Staphylococcus sp.): 32 µg/mL (≈ 19.4 µM)
- MIC Staphylococcus aureus (GC 3051) (Staphylococcus sp.): 32 µg/mL (≈ 19.4 µM)
- MIC Staphylococcus aureus (GC 3053) (Staphylococcus sp.): 32 µg/mL (≈ 19.4 µM)
- MIC Staphylococcus aureus (GC 4541) (Staphylococcus sp.): 32 µg/mL (≈ 19.4 µM)
- MIC Staphylococcus aureus (GC 4542) (Staphylococcus sp.): 32 µg/mL (≈ 19.4 µM)
- MIC Staphylococcus aureus (GC 4544) (Staphylococcus sp.): 32 µg/mL (≈ 19.4 µM)
- MIC Staphylococcus aureus (GC 4545) (Staphylococcus sp.): 32 µg/mL (≈ 19.4 µM)
- MIC Staphylococcus aureus (GC 1131) (Staphylococcus sp.; inoculum 5×10^5 CFU/mL, strain GC 1131): 32 µg/mL (≈ 19.4 µM)
- MIC Staphylococcus aureus (ATCC 29213) (Staphylococcus sp.; strain ATCC 29213): 32 µg/mL (≈ 19.4 µM)
- MIC Staphylococcus aureus (GC 3051) (Staphylococcus sp.; strain GC 3051): 32 µg/mL (≈ 19.4 µM)
- MIC Staphylococcus aureus (GC 3053) (Staphylococcus sp.; strain GC 3053): 32 µg/mL (≈ 19.4 µM)
- MIC Staphylococcus aureus (GC 4541) (Staphylococcus sp.; strain GC 4541): 32 µg/mL (≈ 19.4 µM)
- MIC Staphylococcus aureus (GC 4542) (Staphylococcus sp.; strain GC 4542): 32 µg/mL (≈ 19.4 µM)
- MIC Staphylococcus aureus-SMITH (GC 4543) (Staphylococcus sp.; strain GC 4543): 32 µg/mL (≈ 19.4 µM)
- MIC Staphylococcus aureus (GC 4544) (Staphylococcus sp.; strain GC 4544): 32 µg/mL (≈ 19.4 µM)
- MIC Staphylococcus aureus (GC 4545) (Staphylococcus sp.; strain GC 4545): 32 µg/mL (≈ 19.4 µM)
- MIC Staphylococcus haemolyticus (GC 4546) (Staphylococcus sp.; strain GC 4546): 32 µg/mL (≈ 19.4 µM)
- MIC Coagulase Negative Staphylococcus (GC 4547) (Staphylococcus sp.; strain GC 4547): 32 µg/mL (≈ 19.4 µM)
- MIC Coagulase Negative Staphylococcus (GC 4548) (Staphylococcus sp.; strain GC 4548): 32 µg/mL (≈ 19.4 µM)
- MIC Coagulase Negative Staphylococcus (GC 4549) (Staphylococcus sp.; strain GC 4549): 16 µg/mL (≈ 9.69 µM)
- MIC Coagulase Negative Staphylococcus (GC 4551) (Staphylococcus sp.; strain GC 4551): 32 µg/mL (≈ 19.4 µM)
- MIC Coagulase Negative Staphylococcus (GC 6257) (Staphylococcus sp.; strain GC 6257): 32 µg/mL (≈ 19.4 µM)
- MIC Staphylococcus aureus-SMITH (GC 4543) (Staphylococcus sp.; strain SMITH GC 4543): 32 µg/mL (≈ 19.4 µM)
